Measurements from PMC9638024, “Functional rewiring of G protein-coupled receptor signaling in human labor” (Cell Reports, 2022).

Target: T1, EP2 (prostaglandin E2 receptor EP2) (Homo sapiens, UniProt P43116)
T1 construct: gene PTGER2; FLAG-EP2 stably expressed in HEK 293 cells
Test: cAMP accumulation dose-response in HEK […] cells stably expressing FLAG-EP2 (agonist)
Format: cell-based

T1 sequence (P43116 whole entry): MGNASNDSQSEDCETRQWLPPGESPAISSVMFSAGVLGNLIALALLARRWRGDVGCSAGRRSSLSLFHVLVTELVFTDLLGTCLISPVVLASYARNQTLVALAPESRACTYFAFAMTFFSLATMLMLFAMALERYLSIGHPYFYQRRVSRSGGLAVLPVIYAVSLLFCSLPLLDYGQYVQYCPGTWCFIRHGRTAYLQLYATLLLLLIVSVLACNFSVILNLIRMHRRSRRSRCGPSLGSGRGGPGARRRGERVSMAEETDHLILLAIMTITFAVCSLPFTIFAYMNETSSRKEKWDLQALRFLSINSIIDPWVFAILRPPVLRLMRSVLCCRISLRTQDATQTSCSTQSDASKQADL

CC(C)OC(=O)COc1cccc(NC(=O)c2cc(-c3cccc(F)c3)ccc2F)c1 [PGN9856i]
EC50: 2.11 nM
